Our source for the IC50 values is ChEMBL document CHEMBL5441456, “ASAP - SARS-CoV-2 nsp3 macrodomain dose response” (2024).

Molecules are shown by their SMILES. Where “and” joins values, the source holds several entries; their conditions need not be identical. Equal entries are not always repeated.

The assay deals with Replicase polyprotein 1ab (Severe acute respiratory syndrome coronavirus 2, UniProt P0DTD1). The assay can be described thus: Functional biochemical assay to identify treatments for viral infectious disease that targets SARS-COV-2 nsp3 macrodomain, whereby the mechanism of action displaces an ADP-Ribose modified peptide from the binding site. Utilizing a time-resolved fluorescence method to measure binding by reading the emitted fluorescence intensity in two wavelengths.
Regarding `CCNC(=O)c1cc2c(N[C@@H](c3ccc4c(c3)S(=O)(=O)CCC4)C(C)C)ncnc2[nH]1`, the IC50 (usually the concentration that gives 50% inhibition) was 0.056 µM and 0.1 µM and 0.02 µM and 0.034 µM and 0.019 µM and 0.033 µM and 0.053 µM and 0.032 µM and 0.042 µM.

Take `CC(C)[C@@H](Nc1ncnc2[nH]ccc12)c1ccc2c(c1)S(=O)(=O)CO2`: the IC50 is 3.62 µM and 2.35 µM. Take `CC(C)[C@@H](Nc1ncnc2[nH]c(C(=O)NCc3ccno3)cc12)c1ccc2c(c1)OCCO2`: the IC50 was 0.792 µM and 0.829 µM. Regarding `CC(C)[C@@H](Nc1ncnc2[nH]c(C(=O)NCC3(CO)CC3)cc12)c1ccc2c(c1)OCCO2`, the IC50 was 0.802 µM and 2.14 µM. Under `CC(C)[C@@H](Nc1ncnc2[nH]c(C(=O)Nc3cn(C)nc3O)cc12)c1ccc2c(c1)OCCO2` stands 0.678 µM and 0.611 µM; under `Cc1ncn(C)c1NC(=O)c1cc2c(N[C@@H](c3ccc4c(c3)OCCO4)C(C)C)ncnc2[nH]1`, 10.7 µM and 19.7 µM; under `CC(C)[C@@H](Nc1ccnc2nn[nH]c12)c1ccc2c(c1)S(=O)(=O)CCC2`, over 99.5 µM.

Compound `CC(C)[C@@H](Nc1ccnc2nccn12)c1ccc2c(c1)S(=O)(=O)CCC2` had an IC50 of over 99.5 µM.

For the compound `CC(C)[C@@H](Nc1ncnc2[nH]c(C(=O)NCc3c[nH]cn3)cc12)c1ccc2c(c1)OCCO2`, the IC50 was 1.15 µM and 2.57 µM.

In the case of `CC(C)[C@@H](Nc1ncnc2[nH]c([C@@]3(O)CCCNC3)cc12)c1ccc2c(c1)OCCO2`, the IC50 was 17.8 µM and 13.9 µM.

Consider `CC(C)[C@@H](Nc1ncnc2[nH]c(C(=O)NCC(C)(C)C#N)cc12)c1ccc2c(c1)OCCO2`, for which the IC50 was 2.1 µM and 4.22 µM. With `CC(C)[C@@H](Nc1ccnc2[nH]ccc12)c1ccc2c(c1)S(=O)(=O)CCC2`, the IC50 was over 99.5 µM.

Turning to `CC(C)[C@@H](Nc1ncnc2[nH]c(C(=O)N[C@H]3[C@@H]4CN(C)C[C@@H]43)cc12)c1ccc2c(c1)OCCO2`, the IC50 is 1.1 µM and 2.06 µM. Under `CNCc1cc(-c2cc3c(N[C@@H](c4ccc5c(c4)NC(=O)CO5)C(C)C)ncnc3[nH]2)co1` stands 0.313 µM and 0.187 µM. In turn, `CC(C)[C@@H](Nc1ncnc2[nH]ccc12)c1cccc(S(C)(=O)=O)c1` displayed an IC50 of 96.4 µM. Compound `CC(C)[C@@H](Nc1cccc2nc[nH]c(=O)c12)c1ccc2c(c1)S(=O)(=O)CCC2` gave an IC50 of over 99.5 µM. Turning to `CC(C)[C@@H](Nc1ncnc2[nH]c(C(=O)NCCc3cnco3)cc12)c1ccc2c(c1)OCCO2`, the IC50 was 0.954 µM and 1.91 µM. As for `CC(C)[C@@H](Nc1ncnc2[nH]c(C(=O)N[C@H]3[C@@H]4COC[C@@H]43)cc12)c1ccc2c(c1)OCCO2`, the IC50 was 0.629 µM and 0.543 µM.

In the case of `CCNC(=O)c1cc2c(N[C@@H](c3cccc(-c4ccc(OC)nc4)c3)C(C)C)ncnc2[nH]1`, the IC50 was 20.9 µM and 17.7 µM. `CC(C)[C@@H](Nc1ncnc2[nH]c([C@@]3(O)CCOC3)cc12)c1ccc2c(c1)OCCO2`: the IC50 was 9.98 µM and 23 µM. Consider `CC(C)[C@@H](Nc1ncnc2[nH]ccc12)c1ccc(F)c(C#N)c1`, for which the IC50 was 4.15 µM and 16.6 µM. Compound `CC(C)[C@@H](Nc1n[nH]c2ncccc12)c1ccc2c(c1)S(=O)(=O)CCC2` registered an IC50 of 43.5 µM. The compound `O=C(O)CC(NC(=O)c1ncnc2[nH]ccc12)c1ccc(NC2C[C@H]3CC(CO)C[C@@H]23)cc1` (some centres not stated) gave an IC50 of over 99.5 µM.

On to `CNc1nccc(N[C@@H](c2ccc3c(c2)S(=O)(=O)CCC3)C(C)C)n1`, for which the IC50 was over 99.5 µM. With `CC(C)[C@@H](Nc1ncnc2[nH]ccc12)c1ccc2c(c1)S(=O)(=O)NCC2`, the IC50 was 1.27 µM and 0.967 µM. Regarding `CCc1[nH]nnc1NC(=O)c1cc2c(N[C@@H](c3ccc4c(c3)OCCO4)C(C)C)ncnc2[nH]1`, the IC50 is 4.42 µM and 4.28 µM.

Compound `COc1c(Cl)ncnc1N[C@@H](c1ccc2c(c1)S(=O)(=O)CCC2)C(C)C` showed an IC50 of over 99.5 µM.

Consider `CC(C)[C@@H](Nc1ncnc2[nH]c(C(=O)NC[C@@H]3CCOC3)cc12)c1ccc2c(c1)OCCO2`, for which the IC50 is 0.58 µM and 1.15 µM.

Take `CC(C)[C@@H](Nc1ncnc2[nH]c(C(=O)NCC3CN(C)C3)cc12)c1ccc2c(c1)OCCO2`: the IC50 was 0.866 µM and 0.79 µM.

With `CC(C)[C@@H](Nc1ncnc2[nH]c(C(=O)NCCC(F)F)cc12)c1ccc2c(c1)OCCO2`, the IC50 is 0.837 µM and 1.34 µM. `CC(C)[C@@H](Nc1ncnc2[nH]c(C(=O)NCC3(C#N)CC3)cc12)c1ccc2c(c1)OCCO2`: the IC50 is 1.09 µM and 2.64 µM. Consider `CC(C)[C@@H](Nc1nccc2[nH]c(=O)[nH]c12)c1ccc2c(c1)S(=O)(=O)CCC2`, for which the IC50 was over 99.5 µM.

With `O=C1NCCc2ccc(CNc3ncnc4[nH]ccc34)cc21`, the IC50 was over 99.5 µM. `COc1ccc([C@@H](NC(=O)c2ncnc3[nH]ccc23)C(C)(C)C#N)cc1`: the IC50 is over 99.5 µM. As to `CC(C)[C@@H](Nc1ncnc2[nH]ccc12)c1ccc2c(c1)S(=O)(=O)N(C)CC2`, the IC50 is 5.76 µM and 17 µM.

As to `CC(C)[C@@H](Nc1ncnc2[nH]c(C(=O)NCc3cnco3)cc12)c1ccc2c(c1)OCCO2`, the IC50 is 0.639 µM and 1.76 µM. Under `CC(C)[C@@H](Nc1ncnc2[nH]c(C(=O)NCC3=NCCCN3)cc12)c1ccc2c(c1)OCCO2` stands 3.68 µM and 7.82 µM.

Turning to `CC(C)[C@@H](Nc1ncnc2[nH]c(C(=O)Nc3cnoc3)cc12)c1ccc2c(c1)OCCO2`, the IC50 is 1.97 µM and 5.69 µM.

In the case of `CC(C)[C@@H](Nc1ncnc2[nH]c(C(=O)NCc3ncccn3)cc12)c1ccc2c(c1)OCCO2`, the IC50 is 2.94 µM and 5.87 µM. As for `COc1nc(NC(=O)c2cc3c(N[C@@H](c4ccc5c(c4)OCCO5)C(C)C)ncnc3[nH]2)n[nH]1`, the IC50 is 47.2 µM. Regarding `CC(=O)N1CC(NC(=O)c2cc3c(N[C@@H](c4ccc5c(c4)OCCO5)C(C)C)ncnc3[nH]2)C1`, the IC50 was 0.793 µM and 2 µM. Under `CC(C)[C@@H](Nc1ncnc2[nH]c(C(=O)NCC3(F)CC3)cc12)c1ccc2c(c1)OCCO2` stands 1.36 µM and 2.02 µM. Regarding `CC(C)[C@@H](Nc1ncnc2[nH]c(C(=O)NCCc3c[nH]nn3)cc12)c1ccc2c(c1)OCCO2`, the IC50 was 1.29 µM and 0.947 µM. Under `CC(C)[C@@H](Nc1ncnc2[nH]c(C(=O)NCc3nncn3C)cc12)c1ccc2c(c1)OCCO2` stands 1.39 µM and 1.23 µM. Under `COc1ccc([C@@H](NC(=O)c2ncnc3[nH]ccc23)C(C)(C)c2nnn[nH]2)cc1` stands 1.69 µM and 3.91 µM. Under `CC(C)[C@H](Nc1ncnc2[nH]c(-c3cnn(C)c3C#N)cc12)c1ccc2c(c1)OCCO2` stands 0.238 µM and 0.901 µM. Regarding `CC(C)[C@@H](Nc1cnc2[nH]cnc2c1)c1ccc2c(c1)S(=O)(=O)CCC2`, the IC50 was over 99.5 µM. As to `CC(C)[C@@H](Nc1ncnc2[nH]c(C(=O)Nc3ncco3)cc12)c1ccc2c(c1)OCCO2`, the IC50 is 7.24 µM and 5.89 µM. As for `Cc1ncc(CNC(=O)c2cc3c(N[C@@H](c4ccc5c(c4)OCCO5)C(C)C)ncnc3[nH]2)o1`, the IC50 was 0.695 µM and 0.623 µM. In the case of `CC(C)[C@@H](Nc1ncnc2[nH]c(C(=O)NCC3(CO)CCC3)cc12)c1ccc2c(c1)OCCO2`, the IC50 is 1.29 µM and 2.35 µM. Regarding `CC(C)[C@@H](Nc1ncnc2[nH]c(C(=O)N[C@@H]3CCN(C)C3)cc12)c1ccc2c(c1)OCCO2`, the IC50 is 0.414 µM and 0.502 µM. As for `CC(C)[C@@H](Nc1ncnc2[nH]c(C(=O)NCc3ccn(C)n3)cc12)c1ccc2c(c1)OCCO2`, the IC50 was 0.955 µM and 1.04 µM. Under `CC(C)[C@@H](Nc1ncnc2[nH]c(C(=O)NCCc3cn[nH]c3)cc12)c1ccc2c(c1)OCCO2` stands 1.36 µM and 3.4 µM; under `CC(C)[C@@H](c1ccc2c(c1)S(=O)(=O)CCC2)n1c(=O)[nH]c2c(N)ccnc21`, over 99.5 µM. Consider `CC(C)[C@@H](Nc1ncnc2[nH]c(C(=O)NC3CN(C)C3)cc12)c1ccc2c(c1)OCCO2`, for which the IC50 is 1.44 µM and 3.27 µM. On to `COCCC1(NC(=O)c2cc3c(N[C@@H](c4ccc5c(c4)OCCO5)C(C)C)ncnc3[nH]2)CC1`, for which the half-inhibitory concentration (IC50) is 2.84 µM and 4.42 µM.

In turn, `COc1cn[nH]c1NC(=O)c1cc2c(N[C@@H](c3ccc4c(c3)OCCO4)C(C)C)ncnc2[nH]1` came in with an IC50 of 72.6 µM.
